Source: patent US20030225003A1, “Antimicrobial therapeutic compositions for oral and topical use” (priority 2002, published 2003)
“Also recorded” adds a separate entry of the source.

What was measured:
[1] = cited from earlier work
[2] = test system: diarrhea; assay: Effect of menthocarvol capsules on patients with diarrhea; assay type: in vivo, human; conditions: for time to complete recovery: with oral rehydration
Procedure: (§1) In one embodiment menthocarvol was made by reacting carvacrol with hydrogen under a nitrogen atmosphere in the presence of platinum, as a catalyst, to form menthocarvol. The menthocarvol was administered orally as capsules and topically as ointments to human volunteers to establish that the preliminary preferred formulation functioned to cure specific disease conditions.
Four human subjects were selected for this study with menthocarvol. In this study, the diarrhea symptoms were likely, from either acute bacterial infectous causes or food poisoning. The menthocarvol was administered orally in the form of capsules. Each 500 mg capsule contained 35 mg of the active ingredient. The therapy for each subject was usually oral administration of two 500 mg capsules.

[3] = test system: periodontal disease; assay: Effect of orally applied menthocarvol solution on periodontal disease; assay type: in vivo, human
Procedure: A study on three subjects was performed to test the effectiveness of orally applied ointments containing menthocarvol to treat periodontal disease in humans. The preliminary formulation used was first was a 3% solution of menthocarvol followed by treatment with a 0.6% solution, administered twice a week for three months. The treatment was given with a syringe and applied orally to the affected areas between the teeth at the gum line. […] This phenomenon disappeared in approximately two hours.

[4] = test system: chronic fatigue syndrome; assay: Effect of menthocarvol (oral capsule or topical ointment) on chronic fatigue; assay type: in vivo, human
Procedure: as §1
The presence of bacteria ([…]), parasites (entamoeba gingivalis, or trichomonas tenax) and/or fungi (Candida, or Aspergillus species) in the mouth, nose, or sinus cavities is often accompanied by a history of generalized malaise, fatigue, and frequent headaches, frequently referred to as general fatigue syndrome. Laboratory testing for pathogens is usually negative. People suffering from fatigue syndrome typically function at a substantially lower level of activity than they were capable of before the onset of fatigue symptoms. Fatigue is not improved by bed rest and may be exacerbated by physical or mental activity. Moreover, the presence of some microorganisms in the stomach (i.e. Helicobacter pylori) and bowels, especially in diverticulas (outpouchings of the intestinal mucosa), is often accompanied by malaise and headache.
In the United States, colonic diverticula occurs in approximately 50% of individuals older than 60 years of age. Treatment with menthocarvol of volunteers suffering from this chronic fatigue syndrome was conducted. The menthocarvol therapy was administered in an oral dose of a single 250 mg capsule (17.5 mg active ingredient) or 500 mg capsule (35 mg active ingredient). Two of the subjects, who had localized pain in an extremity, were treated topically with menthocarvol in an ointment (3% active ingredient in lanolin oil). A total of six active individuals complaining of fatigue syndrome participated in this study.

[5] = four patients, two 500 mg capsules orally
[6] = six individuals, oral and topical formulations

| SMILES | solubility in lipids [1] | time to complete recovery ([2]; Case 3, two 500 mg capsules orally) | cure of diarrhea, all four patients [2, 5] | unpleasant or adverse side effects [2, 5] | time to complete recovery ([2]; single cases, two 500 mg capsules orally) | local side effect (tingling sensation) ([3]; 0.6% solution) | infection and observable periodontal disease ([3]; 0.6% solution only, same three patients) | local side effect on gums and tongue ([3]; 3% solution) | necrotic effect on the epithelial cells lining the mouth cavity ([3]; 3% solution) | time until the tingling sensation disappeared ([3]; 3% solution) | inflammation of gums ([3]; 3% solution applied at the gum line, three patients) | effect on fatigue syndrome symptoms ([4]; Case 4, oral 500 mg capsule (35 mg active ingredient) after breakfast for five days) | effect on fatigue syndrome symptoms ([4]; single cases, oral 250 mg capsule (17.5 mg active ingredient) after breakfast for five or ten days) | adverse side effects ([4]; single cases, oral 250 mg or 500 mg capsule after breakfast for five days) | effect on localized pain in an extremity ([4]; single cases, topical cream, 3% active ingredient in lanolin oil, applied before exercise) | effect on fatigue and pain, all cases [4, 6] | unpleasant or adverse side effects, all subjects [4, 6] |
| --- | --- | --- | --- | --- | --- | --- | --- | --- | --- | --- | --- | --- | --- | --- | --- | --- | --- |
| Cc1ccc(C(C)C)cc1O [carvacrol, 5-isopropyl-2-methylphenol] | soluble in lipids | – | – | – | – | – | – | – | – | – | – | – | – | – | – | – | – |
| CC(C)C1CCC(C)C(O)C1 (stereo not drawn) [menthocarvol, hexahydrocarvacrol] | – | 24 h | the diarrhea was cured quickly | None of the patients reported unpleasant or adverse side effects | three and two | This side effect was not observed | some improvement | a temporary tingling sensation on the gums | no observable necrotic effect | approximately two | a marked improvement in the inflammation of their gums was observed | the fatigue and muscle soreness disappeared | the symptoms of malaise and unrefreshing sleep disappeared; also recorded: The sore throat and pain disappeared after five days of treatment; also recorded: the symptoms of fatigue and headache were relieved | No adverse side effects were reported; also recorded: No adverse side affects were reported | The signs of leg and foot muscle fatigue disappeared after the tenth treatment; also recorded: The pain and swelling was significantly reduced after six applications | positive effects on the fatigue and pain | No subjects complained of unpleasant or adverse side effects |
| CC1CCC(C(C)C)C(O)C1 (stereo not drawn) [menthol, 1-Methyl-4-isopropyl cyclohexane-3-ol, reference compound] | soluble in lipids | – | – | – | – | – | – | – | – | – | – | – | – | – | – | – | – |
